In brackets after ≈: the same amount, converted by molar mass.
Legend:
[1] = biological target: T1, Porcine pancreatic elastase (Sus scrofa, UniProt P00772); experiment: N-Succinyl-Ala-Ala-Ala-p-nitroanilide hydrolysis, absorbance […] nm; type: biochemical; details: read-out: IC50 [μg/mL] / Elastase Inhibition (converted)
T1 construct: gene CELA1; commercial native enzyme from pancreas (Sigma-Aldrich); mature enzyme

[2] = biological target: T2, Collagenase from Clostridium histolyticum; experiment: FALGPA hydrolysis, absorbance […] nm; type: biochemical, Hathewaya histolytica; details: FALGPA 1 mM; Tricine 0.05 M pH 7.5, 0.4 M NaCl, 0.01 M CaCl2; 29 °C; 10 min preincubation; positive control
T2 construct: gene colG; commercial native enzyme preparation (Sigma-Aldrich); mixture of ColG and ColH not resolved

T1 sequence (P00772 27-266): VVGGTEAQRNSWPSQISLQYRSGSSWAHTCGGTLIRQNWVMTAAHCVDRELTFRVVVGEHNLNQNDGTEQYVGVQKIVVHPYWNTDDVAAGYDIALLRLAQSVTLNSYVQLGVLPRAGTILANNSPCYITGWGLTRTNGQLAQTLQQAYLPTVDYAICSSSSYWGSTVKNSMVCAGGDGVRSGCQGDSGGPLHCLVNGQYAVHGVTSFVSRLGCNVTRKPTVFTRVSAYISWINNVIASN

In the case of `O=C(O[C@@H]1Cc2c(O)cc(O)cc2O[C@@H]1c1cc(O)c(O)c(O)c1)c1cc(O)c(O)c(O)c1` [EGCG], the IC50 [1] is reported as 136 µM and the “IC50 [μg/mL] / Collagenase Inhibition” value [2] is reported as 34.9 ± 0.4 µg/mL (≈ 76.1 µM).

— PMC7464698, “Phenolic Composition and Skin-related Properties of the Aerial Parts Extract of Different Hemerocallis Cultivars” (Antioxidants, 2020)
